Test results published in patent US20230017532A1 (Hoffmann-La Roche Inc., priority 2018, published 2023).
Structures can show the parent of a compound that is named as a salt.

Tested on: Acinetobacter baumannii ATCC17961
Assay: Antimicrobial susceptibility testing: 90% growth inhibitory concentration (IC90) determination, Iso-Sensitest broth, OD 600 nm
Format: cell-based
Conditions: 90% growth inhibitory concentration, Acinetobacter baumannii ATCC17961, Iso-Sensitest broth, OD 600 nm over 16 h; read-out: ATCC 17961 IC90
How it was run: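 Growth of bacteria (~5×10^5 CFU/ml, Iso-Sensitest medium, 35±2 °C) was followed by OD at 600 nm at 20-min intervals over 16 h against a 10-point twofold compound series (e.g. 50–0.097 μM final). Concentration giving 90% inhibition in log phase was reported.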

SMILES	IC90
COc1ccc(-c2cnc3c(Nc4ccc(C(=O)NCCOCCN)c(F)c4)nccn23)c(F)c1F [Example 199, N-(2-(2-amino-ethoxy)ethyl)-4-((3-(2,3-difluoro-4-methoxyphenyl)imidazo[1,2-a]pyrazin-8-yl)amino)-2-fluorobenzamide]	380 nM
CCc1cc(Nc2nccn3c(-c4ccc(Oc5ccccn5)c(F)c4F)cnc23)ccc1C(=O)NCCOCC(=O)N1CCN[C@H](CO)C1 [Example 204, 4-[[3-[2,3-difluoro-4-(2-pyridyloxy)phenyl]imidazo [1,2-a]pyrazin-8-yl]amino]-2-ethyl-N-[2-[2-[(3S)-3-(hydroxymethyl)piperazin-1-yl]-2-oxo-ethoxy]ethyl]benzamide]	530 nM
CCc1cc(Nc2nccn3c(-c4cc(F)cc(OC)c4)cnc23)ccc1C(=O)NCCOCCN [Example 211, N-[2-(2-amino-ethoxy)ethyl]-2-ethyl-4-[[3-(3-fluoro-5-methoxy-phenyl)imidazo [1,2-a]pyrazin-8-yl]amino] benzamide]	940 nM
CCc1cc(Nc2nccn3c(-c4ccc(OC)c(F)c4F)cnc23)ccc1C(=O)N[C@@H](C)CNCCO [Example 218, 4-[[3-(2,3-difluoro-4-methoxy-phenyl)imidazo [1,2-a]pyrazin-8-yl]amino]-2-ethyl-N-[(1S)-2-(2-hydroxyethyl-amino)-1-methyl-ethyl]benzamide]	540 nM
COc1ccc(-c2cnc3c(Nc4cc(C)c(C(=O)NCCOCCN)c(Cl)c4)nccn23)c(F)c1F [Example 62, N-(2-(2-aminoethoxy)ethyl)-2-chloro-4-((3-(2,3-difluoro-4-methoxyphenyl)imidazo[1,2-a]pyrazin-8-yl)amino)-6-methyl-benzamide]	1870 nM
COc1ccc(-c2cnc3c(Nc4cc(C)c(C(=O)NCCOCCN)c(F)c4)nccn23)c(F)c1F [Example 191, N-[2-(2-amino-ethoxy]-4-[[3-(2,3-difluoro-4-methoxyphenyl)imidazo[1,2-a]pyrazin-8-yl]amino]-2-fluoro-6-methyl-benzamide; hydrochloride]	87 nM
CCc1cc(Nc2nccn3c(-c4ccc(OC)c(F)c4F)cnc23)ccc1C(=O)NCCNCCNCC(=O)O [Example 216, (2-((2-(4-((3-(2,3-difluoro-4-methoxyphenyl)imidazo[1,2-a]pyrazin-8-yl)amino)-2-ethyl-benzamido)ethyl)amino)ethyl) glycine]	490 nM
C#CCNCCCNC(=O)c1ccc(Nc2nccn3c(-c4ccc(OC)c(F)c4F)cnc23)cc1CC [Example 225, 4-((3-(2,3-difluoro-4-methoxyphenyl)imidazo[1,2-a]pyrazin-8-yl)amino)-2-ethyl-N-(3-(prop-2-yn-1-ylamino)propyl) benzamide]	50 nM
CCc1cc(Nc2nccn3c(-c4cc(F)c(OC)cc4F)cnc23)ccc1C(=O)NCCOCCN [Example 222, N-[2-(2-amino-ethoxy)ethyl]-4-[[3-(2,5-difluoro-4-methoxy-phenyl)imidazo[1,2-a]pyrazin-8-yl]amino]-2-ethyl-benzamide]	40 nM
CCc1cc(Nc2nccn3c(-c4ccc(OC)c(F)c4F)cnc23)cc(F)c1C(=O)NCCOCCN [Example 202, N-(2-(2-amino-ethoxy)ethyl)-4-((3-(2,3-difluoro-4-methoxyphenyl)imidazo[1,2-a]pyrazin-8-yl)amino)-2-ethyl-6-fluorobenzamide dihydrochloride]	200 nM
CCc1cc(Nc2nccn3c(-c4c(F)cccc4F)cnc23)ccc1C(=O)NCCOCCN [Example 214, N-[2-(2-amino-ethoxy)ethyl]-4-[[3-(2,6-difluorophenyl)imidazo[1,2-a]pyrazin-8-yl]amino]-2-ethyl-benzamide]	950 nM
COc1ccc(-c2cnc3c(Nc4ccc(C(=O)NCCOCCN)c(F)c4F)nccn23)c(F)c1F [Example 63, N-(2-(2-aminoethoxy)ethyl)-4-((3-(2,3-difluoro-4-methoxy-phenyl)imidazo [1,2-a]pyrazin-8-yl)amino)-2,3-difluoro-benzamide]	880 nM
C#CCOc1ccc(-c2cnc3c(Nc4ccc(C(=O)N[C@@H](C)CNCCNC(C)=O)c(CC)c4)nccn23)c(F)c1F [Example 201, N-[(1S)-2-(2-acetamidoethyl-amino)-1-methyl-ethyl]-4-[[3-(2,3-difluoro-4-prop-2-ynoxy-phenyl)imidazo[1,2-a]pyrazin-8-yl]amino]-2-ethyl-benzamide]	360 nM
CCc1cc(Nc2nccn3c(-c4cccc(F)c4F)cnc23)ccc1C(=O)NCCOCCN [Example 209, N-[2-(2-amino-ethoxy)ethyl]-4-[[3-(2,3-difluoro-phenyl)imidazo [1,2-a]pyrazin-8-yl]amino]-2-ethyl-benzamide]	330 nM
COc1ccc(-c2cnc3c(Nc4cc(C)c(C(=O)NCCOCCN(C)C)c(F)c4)nccn23)c(F)c1F [Example 190, 4-[[3-(2,3-difluoro-4-methoxyphenyl)imidazo[1,2-a]pyrazin-8-yl]amino]-N-[2-[2-(dimethylamino)ethoxy]ethyl]-2-fluoro-6-methylbenzamide]	56 nM
C=CCNCCCNC(=O)c1ccc(Nc2nccn3c(-c4ccc(OC)c(F)c4F)cnc23)cc1CC [Example 181, 4-[[3-(2,3-difluoro-4-methoxyphenyl)imidazo[1,2-a]pyrazin-8-yl]amino]-2-ethyl-N-[3-(prop-2-enylamino)propyl] benzamide; hydrochloride]	160 nM
COc1ccc(-c2cnc3c(Nc4cc(F)c(C(=O)NCCOCCN)c(Br)c4)nccn23)c(F)c1F [Example 217, N-(2-(2-amino-ethoxy)ethyl)-2-bromo-4-((3-(2,3-difluoro-4-methoxyphenyl)imidazo[1,2-a]pyrazin-8-yl)amino)-6-fluorobenzamide dihydrochloride]	100 nM
CCOCCCNC(=O)c1ccc(Nc2nccn3c(-c4ccc(OC)c(F)c4F)cnc23)cc1CC [Example 224, 4-((3-(2,3-difluoro-4-methoxyphenyl)imidazo[1,2-a]pyrazin-8-yl)amino)-N-(3-ethoxypropyl)-2-ethylbenzamide]	180 nM
CCc1cc(Nc2nccn3c(-c4ccc(OC)c(F)c4F)cnc23)ccc1C(=O)NCCOCC(=O)N1CCN[C@H](CO)C1 [Example 203, 4-[[3-(2,3-difluoro-4-methoxy-phenyl)imidazo [1,2-a]pyrazin-8-yl]amino]-2-ethyl-N-[2-[2-[(3S)-3-(hydroxymethyl)piperazin-1-yl]-2-oxo-ethoxy]ethyl]benzamide]	430 nM
COc1ccc(-c2cnc3c(Nc4cc(C)c(C(=O)NCCOCCOCCN)c(F)c4)nccn23)c(F)c1F [Example 208, N-(2-(2-(2-aminoethoxy)ethoxy)ethyl)-4-((3-(2,3-difluoro-4-methoxyphenyl)imidazo[1,2-a]pyrazin-8-yl)amino)-2-fluoro-6-methyl-benzamide dihydrochloride]	230 nM
CCc1cc(Nc2nccn3c(-c4ccc(O)cc4C(F)(F)F)cnc23)ccc1C(=O)NCCOCCN [Example 182, N-[2-(2-aminoethoxy)ethyl]-2-ethyl-4-[[3-[4-hydroxy-2-(trifluoromethyl)phenyl]imidazo [1,2-a]pyrazin-8-yl]amino] benzamide; hydrochloride]	220 nM
CCc1cc(Nc2nccn3c(-c4ccc(OC)cc4S(=O)(=O)NC)cnc23)ccc1C(=O)NCCOCCN [Example 55, N-[2-(2-aminoethoxy)ethyl]-2-ethyl-4-[[3-[4-methoxy-2-(methylsulfamoyl)phenyl]imidazo[1,2-a]pyrazin-8-yl]amino]benzamide; formic acid]	2790 nM
CCc1cc(Nc2nccn3c(-c4ccc(OC)c(F)c4F)cnc23)ccc1C(=O)N[C@H](C)CNCCCCNCCCN [Example 228, (R)-N-(1-((4-((3-aminopropyl)amino)butyl)amino)propan-2-yl)-4-((3-(2,3-difluoro-4-methoxyphenyl)imidazo[1,2-a]pyrazin-8-yl)amino)-2-ethylbenzamide trihydrochloride]	510 nM
COc1ccc(-c2cnc3c(Nc4ccc(C(=O)NCCCNCCO)c(Cl)c4)nccn23)c(F)c1F [Example 221, 2-chloro-4-((3-(2,3-difluoro-4-methoxyphenyl)imidazo[1,2-a]pyrazin-8-yl)amino)-N-(3-((2-hydroxyethyl)amino)propyl) benzamide 2-chloro-4-((3-(2,3-difluoro-4-methoxyphenyl)imidazo[1,2-a]pyrazin-8-yl)amino)-N-(3-((2-hydroxyethyl)amino)propyl)benzamide]	80 nM

Same assay, conditions: Acinetobacter baumannii, ATCC17961, 16 h, read-out: ATCC 17961 IC90

SMILES	IC90
COc1ccc(-c2cnc3c(Nc4ccc(C(=O)NCCOCCN)c(C)c4F)nccn23)c(F)c1F [Example 61, dihydrochloride]	140 nM
